Data set [1] relates to Monochoria vaginalis, Presl. Description: Preemergence weed control under flooded paddy conditions, MOOVA (Monochoria). Note: meaning of each grade not given here. Type of data set: in vivo. The settings on record: preemergence, flooded paddy, rated three to four weeks after treatment.
In the next data set the test system is Sagittaria pygmaea, L. In words: Preemergence weed control under flooded paddy conditions, SAGPY (Arrowhead (Pygmaea)). Note: meaning of each grade not given here. The conditions noted are these: preemergence, flooded paddy, rated three to four weeks after treatment. Type of data set: in vivo.
Data set [2] concerns Oryza sativa, (L.) Tebonnet. Description: Rice tolerance to post-transplant applications under flooded paddy conditions (Example 187), ORYSAT (Rice, Tebonnet). The settings on record: rated three to four weeks after treatment.
Data set [3] deals with Cyperus serotinus, Rottb. In words: Preemergence weed control under flooded paddy conditions, CYPSE (Flatsedge). Note: meaning of each grade not given here. Type of data set: in vivo. The conditions noted are these: preemergence, rated three to four weeks after treatment.
In data set [4] the test system is Echinochloa oryzoides (Ard.) Fritsch. In words: Preemergence weed control under flooded paddy conditions, ECHORC (Watergrass (Calif.)). Note: meaning of each grade not given here. In kind it is in vivo. The settings on record: preemergence, flooded paddy, rated three to four weeks after treatment.
For the next data set, the system named is Cyperus iria. Description: Preemergence weed control under flooded paddy conditions, CYPIR (Rice Flatsedge). Note: meaning of each grade not given here. The conditions noted are these: preemergence, flooded paddy, rated three to four weeks after treatment. In kind it is in vivo.

Consider `C=CCOc1ccc(C)cc1-c1nsc2ccc(-n3c(=O)cc(C(F)(F)F)n(C)c3=O)cc12` [Example 65, 3-{3-[6-(Allyloxy)-m-tolyl]-1,2-benzisothiazol-5-yl}-1-methyl-6-(trifluoromethyl)-2,4(1H,3H)-pyrimidinedione], for which the “herbicidal effect rating, MOOVA” value in data set [1] (0.0313 kg/ha), in data set [1] (0.0625 kg/ha), in data set [1] (0.1250 kg/ha) and in data set [1] (0.2500 kg/ha) was 0.0 in each case. The “herbicidal effect rating, SAGPY” value in the data set with Sagittaria pygmaea, L. (0.0313 kg/ha) was found to be 0.0; in the data set on Sagittaria pygmaea, L. (0.0625 kg/ha), 0.0; with Sagittaria pygmaea, L. (0.1250 kg/ha), 0.0; in the data set with Sagittaria pygmaea, L. (0.2500 kg/ha) it was 0.0. Besides, the “herbicidal effect rating, ORYSAT (rice tolerance)” value (shortened to “herbicidal effect rating, ORYSAT”) in data set [2] (0.0313 kg/ha), in data set [2] (0.0625 kg/ha), in data set [2] (0.1250 kg/ha) and in data set [2] (0.2500 kg/ha) was 0.0 each time. Moreover, the “herbicidal effect rating, CYPSE” value in data set [3] (0.0313 kg/ha), in data set [3] (0.0625 kg/ha), in data set [3] (0.1250 kg/ha) and in data set [3] (0.2500 kg/ha) was 0.0 each time. In addition, the “herbicidal effect rating, ECHORC” value in data set [4] (0.0313 kg/ha), in data set [4] (0.0625 kg/ha), in data set [4] (0.1250 kg/ha) and in data set [4] (0.2500 kg/ha) was 0.0 each time. Further, the “herbicidal effect rating, CYPIR” value with Cyperus iria (0.0313 kg/ha), in the data set on Cyperus iria (0.0625 kg/ha), in the data set with Cyperus iria (0.1250 kg/ha) and with Cyperus iria (0.2500 kg/ha) was 0.0 throughout.
Regarding `Cc1ccc(OCC(=O)OC(C)(C)C)c(-c2nsc3ccc(-n4c(=O)cc(C(F)(F)F)n(C)c4=O)cc23)c1` [Example 68, tert -Butyl {{2-{5-[3,6-dihydro-3-methyl-2,6-dioxo-4-(trifluoromethyl)-1(2H)-pyrimidinyl]-1,2-benzisothiazol-3-yl}-p-tolyl}oxy}acetate], the “herbicidal effect rating, MOOVA” value in data set [1] (0.0313 kg/ha), in data set [1] (0.0625 kg/ha), in data set [1] (0.1250 kg/ha) and in data set [1] (0.2500 kg/ha) was 9.0 in each case. Further, the “herbicidal effect rating, SAGPY” value in the data set with Sagittaria pygmaea, L. (0.0313 kg/ha) was determined as 0.0; in the data set with Sagittaria pygmaea, L. (0.0625 kg/ha) it was 0.0; with Sagittaria pygmaea, L. (0.1250 kg/ha) it was 2.0; with Sagittaria pygmaea, L. (0.2500 kg/ha), 2.0. For the same compound, the “herbicidal effect rating, ORYSAT” value in data set [2] (0.0313 kg/ha) was determined as 0.5; in data set [2] (0.0625 kg/ha), 1.0; in data set [2] (0.1250 kg/ha), 1.5; in data set [2] (0.2500 kg/ha), 1.0. Also, the “herbicidal effect rating, CYPSE” value amounted to 6.0 in data set [3] (0.0313 kg/ha), 7.0 in data set [3] (0.0625 kg/ha) and 7.0 in data set [3] (0.2500 kg/ha). The “herbicidal effect rating, ECHORC” value is reported as 7.5 in data set [4] (0.0313 kg/ha), 9.0 in data set [4] (0.0625 kg/ha), 9.0 in data set [4] (0.1250 kg/ha) and 9.0 in data set [4] (0.2500 kg/ha). Further, the “herbicidal effect rating, CYPIR” value is recorded as 7.0 with Cyperus iria (0.0313 kg/ha), 9.0 in the data set on Cyperus iria (0.0625 kg/ha), 9.0 in the data set with Cyperus iria (0.1250 kg/ha) and 9.0 with Cyperus iria (0.2500 kg/ha).
As to `C=CCOC(=O)COc1ccc(C)cc1-c1nsc2ccc(-n3c(=O)cc(C(F)(F)F)n(C)c3=O)cc12` [Example 69, Allyl {{2-{5-[3,6-dihydro-3-methyl-2,6-dioxo-4-(trifluoromethyl)-1(2H)-pyrimidinyl]-1,2-benzisothiazol-3-yl}-p-tolyl}oxy}acetate], the “herbicidal effect rating, MOOVA” value in data set [1] (0.0313 kg/ha), in data set [1] (0.0625 kg/ha), in data set [1] (0.1250 kg/ha) and in data set [1] (0.2500 kg/ha) was 9.0 throughout. In addition, the “herbicidal effect rating, SAGPY” value came out at 0.0 in the data set with Sagittaria pygmaea, L. (0.0313 kg/ha); 0.0 in the data set on Sagittaria pygmaea, L. (0.0625 kg/ha); 2.0 in the data set on Sagittaria pygmaea, L. (0.1250 kg/ha); 9.0 in the data set on Sagittaria pygmaea, L. (0.2500 kg/ha). Further, the “herbicidal effect rating, ORYSAT” value in data set [2] (0.0313 kg/ha) was found to be 3.5; in data set [2] (0.0625 kg/ha) it was 5.0; in data set [2] (0.1250 kg/ha), 6.5; in data set [2] (0.2500 kg/ha) it was 8.0. Moreover, the “herbicidal effect rating, CYPSE” value in data set [3] (0.0313 kg/ha) came to 0.0; in data set [3] (0.0625 kg/ha) it was 0.0; in data set [3] (0.1250 kg/ha) it was 2.0; in data set [3] (0.2500 kg/ha) it was 9.0. The “herbicidal effect rating, ECHORC” value in data set [4] (0.0313 kg/ha), in data set [4] (0.0625 kg/ha), in data set [4] (0.1250 kg/ha) and in data set [4] (0.2500 kg/ha) was 9.0 in each case. The “herbicidal effect rating, CYPIR” value is 0.0 with Cyperus iria (0.0313 kg/ha), 2.0 with Cyperus iria (0.0625 kg/ha), 4.0 in the data set on Cyperus iria (0.1250 kg/ha) and 7.0 in the data set with Cyperus iria (0.2500 kg/ha).
For the compound `Cc1ccc(OCC(=O)OCCN(C)C)c(-c2nsc3ccc(-n4c(=O)cc(C(F)(F)F)n(C)c4=O)cc23)c1` [Example 70, 2-(Dimethylamino)ethyl {{2-{5-[3,6-dihydro-3-methyl-2,6-dioxo-4-(trifluoromethyl)-1(2H)-pyrimidinyl]-1,2-benzisothiazol-3-yl}-p-tolyl}oxy}acetate], the “herbicidal effect rating, MOOVA” value in data set [1] (0.0313 kg/ha), in data set [1] (0.0625 kg/ha), in data set [1] (0.1250 kg/ha) and in data set [1] (0.2500 kg/ha) was 9.0 each time. Moreover, the “herbicidal effect rating, SAGPY” value came to 0.0 in the data set with Sagittaria pygmaea, L. (0.0313 kg/ha); 0.0 with Sagittaria pygmaea, L. (0.0625 kg/ha); 1.0 in the data set with Sagittaria pygmaea, L. (0.1250 kg/ha); 2.0 in the data set with Sagittaria pygmaea, L. (0.2500 kg/ha). The “herbicidal effect rating, ORYSAT” value in data set [2] (0.0313 kg/ha) amounted to 3.0; in data set [2] (0.0625 kg/ha), 4.5; in data set [2] (0.1250 kg/ha), 6.0; in data set [2] (0.2500 kg/ha), 6.5. Also, the “herbicidal effect rating, CYPSE” value in data set [3] (0.0313 kg/ha), in data set [3] (0.0625 kg/ha), in data set [3] (0.1250 kg/ha) and in data set [3] (0.2500 kg/ha) was 0.0 throughout. Moreover, the “herbicidal effect rating, ECHORC” value in data set [4] (0.0313 kg/ha) is on record as 4.0; in data set [4] (0.0625 kg/ha), 8.0; in data set [4] (0.1250 kg/ha), 9.0; in data set [4] (0.2500 kg/ha), 9.0. Further, the “herbicidal effect rating, CYPIR” value in the data set with Cyperus iria (0.0313 kg/ha) came out at 2.0; with Cyperus iria (0.0625 kg/ha), 7.0; in the data set with Cyperus iria (0.1250 kg/ha), 9.0; in the data set on Cyperus iria (0.2500 kg/ha) it was 9.0.
Take `Cc1ccc(OCC(=O)OCCCl)c(-c2nsc3ccc(-n4c(=O)cc(C(F)(F)F)n(C)c4=O)cc23)c1` [Example 71, 2-Chloroethyl {{2-{5-[3,6-dihydro-3-methyl-2,6-dioxo-4-(trifluoromethyl)-1(2H)-pyrimidinyl]-1,2-benzisothiazol-3-yl}-p-tolyl}oxy}acetate]: the “herbicidal effect rating, MOOVA” value is on record as 8.0 in data set [1] (0.0313 kg/ha), 9.0 in data set [1] (0.0625 kg/ha), 9.0 in data set [1] (0.1250 kg/ha) and 9.0 in data set [1] (0.2500 kg/ha). Besides, the “herbicidal effect rating, SAGPY” value with Sagittaria pygmaea, L. (0.0313 kg/ha) was found to be 0.0; in the data set with Sagittaria pygmaea, L. (0.0625 kg/ha), 0.0; in the data set on Sagittaria pygmaea, L. (0.1250 kg/ha) it was 0.0; in the data set on Sagittaria pygmaea, L. (0.2500 kg/ha), 4.0. Also, the “herbicidal effect rating, ORYSAT” value in data set [2] (0.0313 kg/ha) stood at 2.0; in data set [2] (0.0625 kg/ha), 3.5; in data set [2] (0.1250 kg/ha) it was 5.5; in data set [2] (0.2500 kg/ha), 7.0. In addition, the “herbicidal effect rating, CYPSE” value in data set [3] (0.0313 kg/ha) turned out to be 0.0; in data set [3] (0.0625 kg/ha), 0.0; in data set [3] (0.1250 kg/ha) it was 2.0; in data set [3] (0.2500 kg/ha) it was 9.0. Besides, the “herbicidal effect rating, ECHORC” value is 5.5 in data set [4] (0.0313 kg/ha), 7.5 in data set [4] (0.0625 kg/ha), 8.5 in data set [4] (0.1250 kg/ha) and 9.0 in data set [4] (0.2500 kg/ha). For the same compound, the “herbicidal effect rating, CYPIR” value worked out at 0.0 with Cyperus iria (0.0313 kg/ha), 0.0 in the data set on Cyperus iria (0.0625 kg/ha), 0.0 in the data set with Cyperus iria (0.1250 kg/ha) and 2.0 with Cyperus iria (0.2500 kg/ha).

Values taken from EP0908457B1, “3-(1,2-benzisothiazol- and isoxazol-5-Y1)-2,4(1H,3H)-pyrimidinedione or thione and 3-(1,2-benzisothiazol- and isoxazol-5-y1)-4(3H)-pyrimidinone or thione herbicidal agents” (BASF AKTIENGESELLSCHAFT, priority 1997, dated 1999).
